Measured values reported in ChEMBL document CHEMBL5696442, “Discovery of type II inhibitors of TGFβ-activated kinase 1 (TAK1) and mitogen-activated protein kinase kinase kinase kinase 2 (MAP4K2)” (J Med Chem, 2015).
Activity calls are given as the source filed them. The rule behind the calls is not given here.

How the values were obtained:
[1] = molecular target: Serine/threonine-protein kinase PAK 1 (Homo sapiens) (UniProt Q13153); experiment: Inhibition of PAK1 (unknown origin) at 10 uM by Ambit Kinomescan binding assay
[2] = molecular target: Cyclin-dependent kinase 2 (Homo sapiens) (UniProt P24941); experiment: Inhibition of CDK2 K2 labeling site in human Huh-7 cells at 10 uM by KiNativ Profiling analysis relative to control; assay type: cell-based
[3] = molecular target: Cyclin-dependent kinase 1 (Homo sapiens) (UniProt P06493); experiment: Inhibition of CDC2 K2 labeling site harbouring DLKPQNLLIDDKGTIK in human Huh-7 cells at 1 uM by KiNativ Profiling analysis relative to control; assay type: cell-based
[4] = molecular target: MAP kinase-interacting serine/threonine-protein kinase 1 (Homo sapiens) (UniProt Q9BUB5); experiment: Inhibition of MKNK1 (unknown origin) at 10 uM by Ambit Kinomescan binding assay
[5] = molecular target: Cyclin-dependent kinase 5 (Homo sapiens) (UniProt Q00535); experiment: Inhibition of CDK5 Lys2 labeling site in human A-375 cells at 5 uM by KiNativ Profiling analysis relative to control; assay type: cell-based
[6] = molecular target: T1, Mitogen-activated protein kinase kinase kinase kinase 2 (Homo sapiens) (UniProt Q12851); experiment: Inhibition of MAP4K2 Lys1 labeling site in human A-375 cells at 5 uM by KiNativ Profiling analysis relative to control; assay type: cell-based
T1 sequence (whole entry): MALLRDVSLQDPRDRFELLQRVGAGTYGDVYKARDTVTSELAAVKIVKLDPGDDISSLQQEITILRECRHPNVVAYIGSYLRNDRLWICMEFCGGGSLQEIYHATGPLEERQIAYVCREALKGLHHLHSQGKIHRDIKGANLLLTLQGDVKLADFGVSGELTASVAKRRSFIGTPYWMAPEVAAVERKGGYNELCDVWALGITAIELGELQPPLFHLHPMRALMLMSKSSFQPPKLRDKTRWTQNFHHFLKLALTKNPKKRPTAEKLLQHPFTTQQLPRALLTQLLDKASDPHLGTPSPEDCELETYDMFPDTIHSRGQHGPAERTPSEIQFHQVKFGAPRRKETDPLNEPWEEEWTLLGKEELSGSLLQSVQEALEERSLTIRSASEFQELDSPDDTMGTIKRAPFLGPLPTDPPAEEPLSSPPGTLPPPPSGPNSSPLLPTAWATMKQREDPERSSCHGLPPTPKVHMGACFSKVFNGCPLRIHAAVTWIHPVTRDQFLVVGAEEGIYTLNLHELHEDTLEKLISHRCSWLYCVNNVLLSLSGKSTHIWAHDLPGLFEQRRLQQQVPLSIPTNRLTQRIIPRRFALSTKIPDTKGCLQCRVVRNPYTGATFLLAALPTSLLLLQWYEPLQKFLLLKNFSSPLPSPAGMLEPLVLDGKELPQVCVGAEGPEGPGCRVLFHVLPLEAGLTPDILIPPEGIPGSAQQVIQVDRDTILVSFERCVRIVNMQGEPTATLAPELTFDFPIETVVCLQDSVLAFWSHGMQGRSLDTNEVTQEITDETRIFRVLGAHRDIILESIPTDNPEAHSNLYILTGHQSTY

[7] = molecular target: Serine/threonine-protein kinase N2 (Homo sapiens) (UniProt Q16513); experiment: Inhibition of PKN2 (unknown origin) at 10 uM by Ambit Kinomescan binding assay
[8] = molecular target: Mast/stem cell growth factor receptor Kit (Homo sapiens) (UniProt P10721); experiment: Inhibition of KIT (unknown origin) at 1 uM by Ambit Kinomescan binding assay relative to control; values are per cent of control
[9] = molecular target: Casein kinase II subunit alpha (Homo sapiens) (UniProt P68400); experiment: Inhibition of CSNK2A1 (unknown origin) at 1 uM by Ambit Kinomescan binding assay relative to control; values are per cent of control
[10] = molecular target: Serine/threonine-protein kinase 38 (Homo sapiens) (UniProt Q15208); experiment: Inhibition of NDR1 Lys1 labeling site in human A-375 cells at 0.05 uM by KiNativ Profiling analysis relative to control; assay type: cell-based
[11] = tested on: Mast/stem cell growth factor receptor Kit (Homo sapiens), P10721 [D816V]; experiment: Inhibition of KIT D816V mutant (unknown origin) at 1 uM by Ambit Kinomescan binding assay relative to control; values are per cent of control
[12] = molecular target: Ribosomal protein S6 kinase alpha-3 (Homo sapiens) (UniProt P51812); experiment: Inhibition of RSK2 domain2 Lys1 labeling site in human Huh-7 cells at 1 uM by KiNativ Profiling analysis relative to control; assay type: cell-based
[13] = molecular target: Serine/threonine-protein kinase 26 (Homo sapiens) (UniProt Q9P289); experiment: Inhibition of MST4 Lys1 labeling site in human Huh-7 cells at 1 uM by KiNativ Profiling analysis relative to control; assay type: cell-based
[14] = molecular target: Serine/threonine-protein kinase 4 (Homo sapiens) (UniProt Q13043); experiment: Inhibition of MST1 Lys1 labeling site harbouring ETGQIVAIKQVPVESDLQEIIK in human Huh-7 cell lysate at 1 uM by KiNativ Profiling analysis relative to control
[15] = molecular target: RAF proto-oncogene serine/threonine-protein kinase (Homo sapiens, UniProt P04049); experiment: Inhibition of RAF1 Lys2 labeling site in human Huh-7 cell lysate at 1 uM by KiNativ Profiling analysis relative to control; assay type: subcellular
[16] = molecular target: T2, Phosphorylase b kinase gamma catalytic chain, liver/testis isoform (Homo sapiens) (UniProt P15735); experiment: Inhibition of PHKg2 Lys1 labeling site in human Huh-7 cell lysate at 1 uM by KiNativ Profiling analysis relative to control; assay type: subcellular
T2 sequence (whole entry): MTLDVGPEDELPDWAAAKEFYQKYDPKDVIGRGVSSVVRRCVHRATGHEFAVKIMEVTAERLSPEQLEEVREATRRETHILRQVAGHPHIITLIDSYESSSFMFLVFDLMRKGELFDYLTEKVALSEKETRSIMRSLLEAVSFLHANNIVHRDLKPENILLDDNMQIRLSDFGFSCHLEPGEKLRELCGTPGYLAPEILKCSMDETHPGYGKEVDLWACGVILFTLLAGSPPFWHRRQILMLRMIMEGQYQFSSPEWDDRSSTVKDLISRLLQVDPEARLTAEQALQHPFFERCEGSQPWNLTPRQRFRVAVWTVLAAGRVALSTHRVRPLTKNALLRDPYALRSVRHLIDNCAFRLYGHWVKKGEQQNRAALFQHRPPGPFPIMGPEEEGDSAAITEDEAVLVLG

Mast/stem cell growth factor receptor Kit (Homo sapiens), sequence (P10721 whole entry): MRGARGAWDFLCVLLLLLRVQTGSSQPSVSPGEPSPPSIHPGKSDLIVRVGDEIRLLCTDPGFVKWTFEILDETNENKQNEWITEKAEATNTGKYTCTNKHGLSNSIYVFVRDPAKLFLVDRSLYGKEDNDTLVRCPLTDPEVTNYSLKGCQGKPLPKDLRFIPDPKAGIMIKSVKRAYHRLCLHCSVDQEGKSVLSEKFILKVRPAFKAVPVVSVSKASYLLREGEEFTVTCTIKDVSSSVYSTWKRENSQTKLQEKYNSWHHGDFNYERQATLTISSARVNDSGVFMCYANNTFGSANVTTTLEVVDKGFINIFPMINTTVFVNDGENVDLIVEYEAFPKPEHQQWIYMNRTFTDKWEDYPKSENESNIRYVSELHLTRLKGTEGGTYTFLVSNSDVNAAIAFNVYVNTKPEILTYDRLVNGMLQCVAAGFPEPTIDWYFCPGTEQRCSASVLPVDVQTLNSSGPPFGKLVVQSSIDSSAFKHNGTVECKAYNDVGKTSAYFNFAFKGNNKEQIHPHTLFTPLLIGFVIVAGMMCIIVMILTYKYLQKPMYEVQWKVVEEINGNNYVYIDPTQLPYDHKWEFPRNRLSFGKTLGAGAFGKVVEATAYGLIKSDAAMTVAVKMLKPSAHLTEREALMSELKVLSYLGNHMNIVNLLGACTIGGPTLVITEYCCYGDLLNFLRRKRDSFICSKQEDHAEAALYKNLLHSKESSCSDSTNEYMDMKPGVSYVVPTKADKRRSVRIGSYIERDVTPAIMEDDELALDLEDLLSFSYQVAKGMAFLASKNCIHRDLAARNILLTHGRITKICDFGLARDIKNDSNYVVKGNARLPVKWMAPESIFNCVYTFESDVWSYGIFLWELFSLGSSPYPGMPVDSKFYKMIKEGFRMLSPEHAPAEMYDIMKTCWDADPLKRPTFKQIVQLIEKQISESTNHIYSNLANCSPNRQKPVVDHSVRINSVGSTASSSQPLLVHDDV
Ribosomal protein S6 kinase alpha-3 (Homo sapiens), sequence (P51812 whole entry, the tested form may be a part): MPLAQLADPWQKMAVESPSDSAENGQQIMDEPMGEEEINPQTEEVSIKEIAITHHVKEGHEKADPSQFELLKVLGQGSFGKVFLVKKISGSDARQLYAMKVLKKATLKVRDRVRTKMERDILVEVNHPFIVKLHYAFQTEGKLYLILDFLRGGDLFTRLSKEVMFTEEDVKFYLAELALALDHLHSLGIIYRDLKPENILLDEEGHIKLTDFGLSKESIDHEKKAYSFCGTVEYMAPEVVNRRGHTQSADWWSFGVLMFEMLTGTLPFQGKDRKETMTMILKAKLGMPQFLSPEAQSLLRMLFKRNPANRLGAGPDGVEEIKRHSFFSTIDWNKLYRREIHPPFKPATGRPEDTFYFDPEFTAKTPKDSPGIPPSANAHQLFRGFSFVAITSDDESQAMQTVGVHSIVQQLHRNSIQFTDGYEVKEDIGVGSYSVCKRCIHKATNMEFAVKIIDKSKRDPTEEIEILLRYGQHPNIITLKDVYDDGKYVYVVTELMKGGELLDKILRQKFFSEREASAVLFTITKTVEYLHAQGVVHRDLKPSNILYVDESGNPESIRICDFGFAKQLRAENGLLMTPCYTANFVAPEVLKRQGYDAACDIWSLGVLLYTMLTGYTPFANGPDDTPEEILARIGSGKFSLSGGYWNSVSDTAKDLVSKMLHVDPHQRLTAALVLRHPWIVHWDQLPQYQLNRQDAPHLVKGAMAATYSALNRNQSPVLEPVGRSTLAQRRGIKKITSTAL
Serine/threonine-protein kinase 38 (Homo sapiens), sequence (Q15208 2-465 limits assumed): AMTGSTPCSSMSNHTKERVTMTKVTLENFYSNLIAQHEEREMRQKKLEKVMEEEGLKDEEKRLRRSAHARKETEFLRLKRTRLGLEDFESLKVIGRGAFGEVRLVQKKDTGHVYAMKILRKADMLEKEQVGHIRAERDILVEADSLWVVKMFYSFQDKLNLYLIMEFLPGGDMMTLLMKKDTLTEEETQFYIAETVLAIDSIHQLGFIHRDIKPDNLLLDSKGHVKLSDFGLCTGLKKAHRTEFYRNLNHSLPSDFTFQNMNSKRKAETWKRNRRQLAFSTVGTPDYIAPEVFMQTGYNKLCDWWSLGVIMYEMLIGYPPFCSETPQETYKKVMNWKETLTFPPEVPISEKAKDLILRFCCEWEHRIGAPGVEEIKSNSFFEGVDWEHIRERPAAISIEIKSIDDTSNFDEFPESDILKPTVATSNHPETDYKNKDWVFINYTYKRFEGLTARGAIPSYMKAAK
Cyclin-dependent kinase 5 (Homo sapiens), sequence (Q00535 whole entry, looked up): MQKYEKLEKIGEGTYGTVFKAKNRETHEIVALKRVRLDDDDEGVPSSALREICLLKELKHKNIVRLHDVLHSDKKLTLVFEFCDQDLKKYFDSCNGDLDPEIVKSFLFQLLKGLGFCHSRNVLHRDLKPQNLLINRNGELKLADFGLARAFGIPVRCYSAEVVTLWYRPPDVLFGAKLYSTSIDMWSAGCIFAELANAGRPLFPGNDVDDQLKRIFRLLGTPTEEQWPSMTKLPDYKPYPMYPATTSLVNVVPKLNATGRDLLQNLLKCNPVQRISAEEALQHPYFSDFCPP
RAF proto-oncogene serine/threonine-protein kinase, sequence (P04049 whole entry, canonical isoform): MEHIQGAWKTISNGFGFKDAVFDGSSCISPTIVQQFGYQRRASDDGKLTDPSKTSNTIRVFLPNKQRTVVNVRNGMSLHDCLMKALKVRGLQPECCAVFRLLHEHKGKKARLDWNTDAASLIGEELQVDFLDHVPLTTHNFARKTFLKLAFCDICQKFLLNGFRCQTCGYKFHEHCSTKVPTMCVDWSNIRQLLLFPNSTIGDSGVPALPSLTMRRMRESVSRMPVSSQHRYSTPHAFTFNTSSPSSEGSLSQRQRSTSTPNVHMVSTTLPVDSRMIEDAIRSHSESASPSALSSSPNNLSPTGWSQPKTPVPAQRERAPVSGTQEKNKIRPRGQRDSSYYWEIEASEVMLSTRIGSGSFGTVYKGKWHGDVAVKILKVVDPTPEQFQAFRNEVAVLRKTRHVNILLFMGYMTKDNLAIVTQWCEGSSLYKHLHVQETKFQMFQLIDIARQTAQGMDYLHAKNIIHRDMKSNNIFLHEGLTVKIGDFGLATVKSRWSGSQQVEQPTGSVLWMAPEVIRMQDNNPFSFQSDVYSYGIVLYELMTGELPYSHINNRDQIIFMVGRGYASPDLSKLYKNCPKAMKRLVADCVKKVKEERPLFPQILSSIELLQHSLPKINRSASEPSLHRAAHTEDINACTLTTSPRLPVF
Cyclin-dependent kinase 1 (Homo sapiens), sequence (P06493 whole entry, looked up): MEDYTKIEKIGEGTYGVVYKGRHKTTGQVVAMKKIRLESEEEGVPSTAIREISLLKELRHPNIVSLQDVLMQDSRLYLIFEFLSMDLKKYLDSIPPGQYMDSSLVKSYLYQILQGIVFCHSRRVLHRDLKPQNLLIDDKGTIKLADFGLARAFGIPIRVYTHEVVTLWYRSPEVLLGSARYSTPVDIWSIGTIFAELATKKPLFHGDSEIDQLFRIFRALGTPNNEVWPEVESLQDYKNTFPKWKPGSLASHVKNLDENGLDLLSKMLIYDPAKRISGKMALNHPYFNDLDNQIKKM
Serine/threonine-protein kinase 26 (Homo sapiens), sequence (Q9P289 2-416 limits assumed): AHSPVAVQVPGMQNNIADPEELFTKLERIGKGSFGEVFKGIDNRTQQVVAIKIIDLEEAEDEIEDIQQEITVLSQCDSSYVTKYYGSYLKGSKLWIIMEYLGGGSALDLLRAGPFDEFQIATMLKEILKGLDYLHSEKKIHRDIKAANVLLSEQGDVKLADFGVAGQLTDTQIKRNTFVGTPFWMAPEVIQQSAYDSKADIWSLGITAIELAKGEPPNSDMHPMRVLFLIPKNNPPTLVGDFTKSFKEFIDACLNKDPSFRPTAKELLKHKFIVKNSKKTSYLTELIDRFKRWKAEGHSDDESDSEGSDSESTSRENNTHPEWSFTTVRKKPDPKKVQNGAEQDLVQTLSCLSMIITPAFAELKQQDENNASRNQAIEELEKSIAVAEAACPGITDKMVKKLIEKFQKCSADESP
Serine/threonine-protein kinase PAK 1 (Homo sapiens), sequence (Q13153 whole entry, looked up): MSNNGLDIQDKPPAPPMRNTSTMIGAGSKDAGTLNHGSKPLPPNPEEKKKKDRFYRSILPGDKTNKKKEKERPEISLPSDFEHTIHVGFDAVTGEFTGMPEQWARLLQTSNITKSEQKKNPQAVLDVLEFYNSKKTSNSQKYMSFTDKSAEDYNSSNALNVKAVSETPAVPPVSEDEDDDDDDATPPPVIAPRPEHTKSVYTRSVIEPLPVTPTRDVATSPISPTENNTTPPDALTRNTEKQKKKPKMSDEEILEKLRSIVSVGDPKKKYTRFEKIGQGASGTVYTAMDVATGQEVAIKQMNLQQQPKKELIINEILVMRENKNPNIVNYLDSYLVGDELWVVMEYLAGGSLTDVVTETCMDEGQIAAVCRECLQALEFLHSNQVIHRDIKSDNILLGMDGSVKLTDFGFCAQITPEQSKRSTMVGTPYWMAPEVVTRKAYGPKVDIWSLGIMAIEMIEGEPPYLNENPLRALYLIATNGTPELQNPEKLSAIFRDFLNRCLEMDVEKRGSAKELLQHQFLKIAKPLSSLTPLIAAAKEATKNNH
Casein kinase II subunit alpha (Homo sapiens), sequence (P68400 whole entry, looked up): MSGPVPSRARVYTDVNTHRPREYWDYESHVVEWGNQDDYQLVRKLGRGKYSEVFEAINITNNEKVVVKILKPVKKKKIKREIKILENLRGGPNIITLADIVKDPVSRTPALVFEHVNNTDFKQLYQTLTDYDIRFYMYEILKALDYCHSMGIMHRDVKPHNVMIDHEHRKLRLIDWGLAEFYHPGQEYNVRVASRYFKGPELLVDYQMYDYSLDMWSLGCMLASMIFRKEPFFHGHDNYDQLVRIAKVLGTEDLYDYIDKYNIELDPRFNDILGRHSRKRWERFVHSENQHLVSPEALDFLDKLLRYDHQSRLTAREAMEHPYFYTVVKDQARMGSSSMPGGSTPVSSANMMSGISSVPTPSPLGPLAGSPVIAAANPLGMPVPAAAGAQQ
Mast/stem cell growth factor receptor Kit (Homo sapiens), P10721 [D816V], sequence (P10721 whole entry D816V, the tested form may be a part): as the sequence (P10721 whole entry) above, with D816V counted along it

SMILES: CCN1CCN(Cc2ccc(NC(=O)c3ccc(C)c(Oc4ccnc5[nH]ccc45)c3)cc2C(F)(F)F)CC1
- inhibition [1]: inactive
- inhibition [2]: 16.2%
- inhibition [3]: 7.9%
- inhibition [4]: inactive
- inhibition [5]: -6.8%
- inhibition [6]: > 99.5%
- inhibition [7]: inactive

SMILES: CCN1CCN(Cc2ccc(NC(=O)c3ccc(C)c(/C=C/c4cnc5[nH]ccc5c4OC)c3)cc2C(F)(F)F)CC1
- residual activity [8]: 0.3%
- residual activity [9]: 100%
- inhibition [10]: 3.2%
- residual activity [11]: 8.8%

SMILES: CNc1cc(Oc2cc(C(=O)Nc3cc(N4CCN(C)CC4)cc(C(F)(F)F)c3)ccc2C)ncn1
- inhibition [12]: 4.1%
- inhibition [13]: 41.9%
- inhibition [14]: -1.3%
- inhibition [15]: 23.2%
- inhibition [16]: 0.2%
